One assay has as its target T1, C-IAP1 BIR3 (Homo sapiens, UniProt Q13490).
T1 construct: 0.2 μM C-IAP1 BIR3
Kind of assay: Fluorescence polarization peptide binding assay, C-IAP1 BIR3. The conditions noted are these: for IC50: 0.2 μM C-IAP1 BIR3, 5 nM AVP-diPhe-FAM probe, one hour incubation; for Ki: determined from the IC50 values (procedure of Keating et al.). The method, then:
(§1) Polarization experiments were performed on an Analyst HT 96-384 reader (Molecular Devices Corp.) in order to determine dissociation constants (Kd) between IAP protein BIR domains and the fluorescent probe. Samples for fluorescence polarization affinity experiments were prepared by addition of serial dilutions of IAP BIR domains (C-IAP1 BIR3, C-IAP-2 BIR3, ML/X-IAP chimera MLXBIR3SG and X-IAP BIR3) in polarization buffer (50 mM Tris [pH 7.2], 120 mM NaCl, 1% bovine globulins 5 mM DTT and 0.05% octylglucoside) to 5-carboxyflourescein-conjugated AVPdi-Phe-NH2 (AVP-diPhe-FAM) at 5 nM final concentration.
(§2) The reactions were read after an incubation time of 1 hour at room temperature with standard cut-off filters for the fluorescein fluorophore (λex=485 nm; λem=530 nm) in 384-well black plates (Molecular Devices Corp.). Fluorescence polarization values were plotted as a function of the protein concentration, and the effective concentration 50 (EC50) values were obtained by fitting the data to a 4-parameter equation using Kaleidagraph software (Synergy software, Reading, Pa.). The apparent Kd values were determined from the EC50 values. Inhibition Constants (Ki values) for the antagonists were determined by the addition of 0.06 μM MLXBIR3SG, 0.5 μM X-IAP BIR3, 0.2 μM C-IAP1 BIR3 or 0.4 μM C-IAP-2 BIR3 to wells containing 5 nM of the AVP-diPhe-FAM probe as well as 1:3 serial dilutions of antagonist compounds starting at a concentration of 200 μM in the polarization buffer. Samples were read after an incubation time of one hour. Fluorescence polarization values were plotted as a function of the antagonist concentration, and the IC50 values were obtained by fitting the data to a 4-parameter equation using Kaleidagraph software (Synergy software, Reading, Pa.). Ki values for the antagonists were determined from the IC50 values according to the procedure of Keating, S. M., Marsters, J, Beresini, M., Ladner, C., Zioncheck, K., Clark, K., Arellano, F., and Bodary, S. (2000) in Proceedings of SPIE: In Vitro Diagnostic Instrumentation (Cohn, G. E., Ed.) pp 128-137, Bellingham, Wash. […] All values are micromolar.
On the technique in general: Polarisation of emitted light reports the rotation of a fluorescent probe.

Another assay has as its target T2, C-IAP2 BIR3 (Homo sapiens, UniProt Q13489).
T2 construct: 0.4 μM C-IAP-2 BIR3
Nature of the assay: Fluorescence polarization peptide binding assay, C-IAP2 BIR3. The conditions noted are these: for IC50: 0.4 μM C-IAP-2 BIR3, 5 nM AVP-diPhe-FAM probe, one hour incubation; for Ki: determined from the IC50 values (procedure of Keating et al.). The method, then:
as §1, §2

The target of assay [1] is T3, ML/X-IAP chimera MLXBIR3SG (Homo sapiens, UniProt Q96CA5, S150G).
T3 sequence (Q96CA5 with tags, fused parts or gaps S150G): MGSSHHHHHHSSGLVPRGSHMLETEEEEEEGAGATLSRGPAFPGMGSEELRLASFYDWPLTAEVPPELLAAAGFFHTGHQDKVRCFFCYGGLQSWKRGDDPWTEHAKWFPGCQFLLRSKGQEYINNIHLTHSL
Nature of the assay: Fluorescence polarization peptide binding assay, MLXBIR3SG. To be noted: for IC50: 0.06 μM MLXBIR3SG, 5 nM AVP-diPhe-FAM probe, one hour incubation; for Ki: determined from the IC50 values (procedure of Keating et al.). The method, then: The following fluorescence polarization experiments used a chimeric BIR domain referred to as MLXBIR3SG in which 11 of 110 residues correspond to those found in XIAP BIR3, while the remainder correspond to ML-IAP BIR. […] The improved caspase-9 inhibition of the chimeric BIR domain MLXBIR3SG has been correlated with increased inhibition of doxorubicin-induced apoptosis when transfected into MCF7 cells.
as §1, §2

The target of the next assay is T4, X-IAP BIR3 (Homo sapiens, UniProt P98170).
T4 construct: 0.5 μM X-IAP BIR3
Kind of assay: Fluorescence polarization peptide binding assay, X-IAP BIR3. To be noted: for IC50: 0.5 μM X-IAP BIR3, 5 nM AVP-diPhe-FAM probe, one hour incubation; for Ki: determined from the IC50 values (procedure of Keating et al.). On the procedure:
as §1, §2

SMILES strings stand for the structures.

T2 sequence (Q13489 238-349 limits assumed): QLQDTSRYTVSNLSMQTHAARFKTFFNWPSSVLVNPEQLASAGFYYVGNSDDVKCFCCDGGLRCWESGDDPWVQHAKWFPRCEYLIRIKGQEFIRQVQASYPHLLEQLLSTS
T1 sequence (Q13490 253-363 limits assumed): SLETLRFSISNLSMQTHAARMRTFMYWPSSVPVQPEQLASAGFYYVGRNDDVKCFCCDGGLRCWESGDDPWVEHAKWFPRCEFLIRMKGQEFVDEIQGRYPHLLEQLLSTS
T4 sequence (P98170 241-356 limits assumed): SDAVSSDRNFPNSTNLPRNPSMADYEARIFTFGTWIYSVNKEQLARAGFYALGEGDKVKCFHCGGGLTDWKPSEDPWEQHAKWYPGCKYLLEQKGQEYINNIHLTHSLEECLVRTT

In the case of `CN[C@@H](C)C(=O)N[C@H](C(=O)N[C@H](C(=O)Nc1snnc1-c1ccccc1)C(C)(C)S(C)(=O)=O)C1CCCCC1` [Compound 10], the IC50 was 700 nM at C-IAP1 BIR3, 1130 nM at C-IAP2 BIR3, 2400 nM in assay [1] and 36200 nM on X-IAP BIR3. Further, the inhibition constant (Ki) turned out to be 108 nM at C-IAP1 BIR3, 244 nM on C-IAP2 BIR3, 547 nM in assay [1] and 6440 nM on X-IAP BIR3.

As to `CN[C@@H](C)C(=O)N[C@H](C(=O)N[C@H](C(=O)Nc1sc(-c2cnccn2)nc1-c1ccccc1)C(C)(C)C)c1ccccc1` [Compound 11], the IC50 at C-IAP1 BIR3 was 13500 nM; on C-IAP2 BIR3, 34500 nM; in assay [1] it was about 60000 nM; on X-IAP BIR3 it was over 200000 nM. The Ki on C-IAP1 BIR3 is 2090 nM; on C-IAP2 BIR3 it was 7440 nM; in assay [1], 13700 nM; at X-IAP BIR3, over 35000 nM.

In the case of `CN[C@@H](C)C(=O)N[C@H](C(=O)N[C@H](C(=O)NCC(c1ccccc1)c1ccccc1)C(C)(C)O)C(C)C` [Compound 12], the 50% inhibitory concentration (IC50) was 6880 nM on C-IAP1 BIR3, 19100 nM at C-IAP2 BIR3, 2540 nM in assay [1] and over 200000 nM at X-IAP BIR3. Moreover, the inhibition constant Ki was 1060 nM at C-IAP1 BIR3, 4130 nM at C-IAP2 BIR3, 579 nM in assay [1] and over 35000 nM on X-IAP BIR3.

For `CN[C@@H](C)C(=O)N[C@H](C(=O)N[C@H](C(=O)NCC(c1ccccc1)c1ccccc1)C(C)(C)SC)C1CCCCC1` [Compound 13], the 50% inhibitory concentration (IC50) on C-IAP1 BIR3 is 3890 nM; on C-IAP2 BIR3 it was 6250 nM; in assay [1], 4220 nM; at X-IAP BIR3, over 200000 nM. For the same molecule, the Ki is 602 nM on C-IAP1 BIR3, 1350 nM on C-IAP2 BIR3, 963 nM in assay [1] and over 35000 nM at X-IAP BIR3.

`CN[C@@H](C)C(=O)N[C@H](C(=O)N(C)[C@H](C(=O)Nc1snnc1-c1ccccc1)C(C)C)C1CCCCC1` [Compound 14]: the IC50 worked out at 140 nM at C-IAP1 BIR3, 226 nM at C-IAP2 BIR3, 250 nM in assay [1] and 26400 nM on X-IAP BIR3. Further, the inhibition constant (Ki) amounted to 21.7 nM on C-IAP1 BIR3, 48.8 nM at C-IAP2 BIR3, 57 nM in assay [1] and 4700 nM at X-IAP BIR3.

Turning to `CN[C@H](C)C(=O)N[C@@H](C(=O)N[C@@H](C(=O)NCC(c1ccccc1)c1ccccc1)C(C)(C)C)C1CCCCC1` [Compound 15], the 50% inhibitory concentration (IC50) was 3640 nM on C-IAP1 BIR3, 7570 nM on C-IAP2 BIR3, 2900 nM in assay [1] and over 200000 nM at X-IAP BIR3. For the same molecule, the Ki is 564 nM at C-IAP1 BIR3, 1630 nM on C-IAP2 BIR3, 661 nM in assay [1] and over 35000 nM on X-IAP BIR3.

On to `CN[C@@H](C)C(=O)N[C@H](C(=O)N[C@H](C(=O)Nc1cc(C)nn1-c1ccccc1)C(C)(C)SCc1ccc(OC)cc1)C1CCCCC1` [Compound 16], for which the IC50 at C-IAP1 BIR3 was 738 nM; at C-IAP2 BIR3, 1320 nM; in assay [1], 4540 nM; at X-IAP BIR3 it was over 200000 nM. Moreover, the Ki at C-IAP1 BIR3 is 114 nM; at C-IAP2 BIR3, 286 nM; in assay [1], 1030 nM; on X-IAP BIR3, over 35000 nM.

In the case of `CN[C@@H](C)C(=O)N[C@H](C(=O)N[C@H](C(=O)NCC(c1ccccc1)c1ccccc1)C(C)(C)SCc1ccc(OC)cc1)C1CCCCC1` [Compound 17], the IC50 at C-IAP1 BIR3 was 6410 nM; at C-IAP2 BIR3, 6530 nM; in assay [1], 5160 nM; on X-IAP BIR3, over 200000 nM. Also, the Ki on C-IAP1 BIR3 was 993 nM; at C-IAP2 BIR3 it was 1410 nM; in assay [1] it was 1180 nM; at X-IAP BIR3 it was over 35000 nM.

Regarding `CN[C@@H](C)C(=O)N[C@H](C(=O)N[C@H](C(=O)NCC(c1ccccc1)c1ccccc1)C(C)(C)SCNC(C)=O)C1CCCCC1` [Compound 18], the IC50 at C-IAP1 BIR3 is 2550 nM; on C-IAP2 BIR3 it was 4340 nM; in assay [1] it was 2480 nM; on X-IAP BIR3, over 200000 nM. Further, the Ki at C-IAP1 BIR3 is 395 nM; at C-IAP2 BIR3 it was 937 nM; in assay [1], 564 nM; at X-IAP BIR3, over 35000 nM.

What is called IC50 is the point on the concentration scale where inhibition reaches its midpoint. Usually Ki stands for a dissociation constant, usually derived from enzyme kinetics or from competition with a known ligand.

The record behind these values is patent US20110046066A1, “INHIBITORS OF IAP” (GENENTECH, INC., priority 2008, published 2011).
